Data on two compounds can be found in patent US20260176265A1 (Cancer Research Technology Limited, priority 2022, published 2026).

In test [1] the target is CtermHisTag-mEGFR Triple Mutant - C797S, L858R, T790M (Homo sapiens, UniProt P00533, C797S/L858R/T790M). The experiment in a line: TR-FRET probe displacement assay, EGFR triple mutant. The format is binding. The following applies: T790M 1.25 nM, probe 100 nM, 30 mins room temperature. A digest of the protocol:
(§1)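 Ten-point compound series, 100000 to 3 nM final, tested against His-tagged EGFR (wild type or C797S/L858R/T790M) for probe displacement. TR-FRET read at Ex337 nm, Em490/520 nm; run in technical replicate, biological duplicate.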
(In general: Time-resolved FRET reads energy transfer from a long-lived donor to a nearby acceptor.)

In test [2] the target is CtermHisTag-mEGFR Wild type (Homo sapiens, UniProt P00533). Nature of the test: TR-FRET probe displacement assay, EGFR wild type. The format is binding. The following applies: EGFR wild type 1.25 nM, probe 100 nM, 30 mins room temperature. A digest of the protocol:
as §1

In test [3] the target is T1, Phospho-EGFR (Tyr1068) in H1975 cells (Homo sapiens, UniProt P00533, L858R/T790M).
T1 construct: host or cells: H1975
Nature of the test: HTRF pEGFR/total EGFR assay in H1975 cells. The format is cell-based. The following applies: compound 3 hours, ratio pEGFR/total EGFR. A digest of the protocol: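 H1975 cells (EGFR L858R/T790M) adhered 24 h, then compound-treated for 3 h in duplicate, 0.1% DMSO final. Lysates read by HTRF at 665/620 nm for phospho-Tyr1068 and total EGFR. Value is pEGFR/total EGFR ratio as % of 0 uM control.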

Test [4] concerns the target T2, Phospho-EGFR (Tyr1068) in H1975 C797S cells (Homo sapiens, UniProt P00533, C797S/L858R/T790M).
T2 construct: endogenous in cells; host or cells: H1975 C797S (CRISPR-edited in house from ATCC CRL-5908)
The experiment in a line: HTRF pEGFR/total EGFR assay in H1975 C797S cells. The format is cell-based. The following applies: H1975 C797S cells (CRISPR), compound 3 hours, ratio pEGFR/total EGFR. A digest of the protocol:
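H1975 cells carrying CRISPR-engineered EGFR C797S (with L858R/T790M) were exposed to compounds for 3 h at 0.1% DMSO, in duplicate. Lysates were read with HTRF kits for pEGFR Tyr1068 and total EGFR at 665/620 nm. Values are the pEGFR/total EGFR ratio as percent of the 0 uM control.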

Test [5] addresses T3, Phospho-EGFR (Tyr1068) in A431 cells (Homo sapiens, UniProt P00533).
T3 construct: endogenous in cells; host or cells: A431
Nature of the test: HTRF pEGFR/total EGFR assay in A431 cells (EGF stimulated). The format is cell-based. The following applies: compound 2.5 hours then 100 ng/ml EGF 30 mins, ratio pEGFR/total EGFR. A digest of the protocol:
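A431 cells pretreated with compounds 2.5 h (0.1% DMSO), then stimulated with 100 ng/ml EGF for 30 min. Lysates assayed by HTRF for phospho-EGFR (Tyr1068) and total EGFR, read at 665/620 nm. Values are pEGFR/total EGFR ratio as percentage of 0uM control.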

The term IC50 denotes the concentration needed to halve the response being measured.

T1 sequence (P00533 25-1210 T790M/L858R): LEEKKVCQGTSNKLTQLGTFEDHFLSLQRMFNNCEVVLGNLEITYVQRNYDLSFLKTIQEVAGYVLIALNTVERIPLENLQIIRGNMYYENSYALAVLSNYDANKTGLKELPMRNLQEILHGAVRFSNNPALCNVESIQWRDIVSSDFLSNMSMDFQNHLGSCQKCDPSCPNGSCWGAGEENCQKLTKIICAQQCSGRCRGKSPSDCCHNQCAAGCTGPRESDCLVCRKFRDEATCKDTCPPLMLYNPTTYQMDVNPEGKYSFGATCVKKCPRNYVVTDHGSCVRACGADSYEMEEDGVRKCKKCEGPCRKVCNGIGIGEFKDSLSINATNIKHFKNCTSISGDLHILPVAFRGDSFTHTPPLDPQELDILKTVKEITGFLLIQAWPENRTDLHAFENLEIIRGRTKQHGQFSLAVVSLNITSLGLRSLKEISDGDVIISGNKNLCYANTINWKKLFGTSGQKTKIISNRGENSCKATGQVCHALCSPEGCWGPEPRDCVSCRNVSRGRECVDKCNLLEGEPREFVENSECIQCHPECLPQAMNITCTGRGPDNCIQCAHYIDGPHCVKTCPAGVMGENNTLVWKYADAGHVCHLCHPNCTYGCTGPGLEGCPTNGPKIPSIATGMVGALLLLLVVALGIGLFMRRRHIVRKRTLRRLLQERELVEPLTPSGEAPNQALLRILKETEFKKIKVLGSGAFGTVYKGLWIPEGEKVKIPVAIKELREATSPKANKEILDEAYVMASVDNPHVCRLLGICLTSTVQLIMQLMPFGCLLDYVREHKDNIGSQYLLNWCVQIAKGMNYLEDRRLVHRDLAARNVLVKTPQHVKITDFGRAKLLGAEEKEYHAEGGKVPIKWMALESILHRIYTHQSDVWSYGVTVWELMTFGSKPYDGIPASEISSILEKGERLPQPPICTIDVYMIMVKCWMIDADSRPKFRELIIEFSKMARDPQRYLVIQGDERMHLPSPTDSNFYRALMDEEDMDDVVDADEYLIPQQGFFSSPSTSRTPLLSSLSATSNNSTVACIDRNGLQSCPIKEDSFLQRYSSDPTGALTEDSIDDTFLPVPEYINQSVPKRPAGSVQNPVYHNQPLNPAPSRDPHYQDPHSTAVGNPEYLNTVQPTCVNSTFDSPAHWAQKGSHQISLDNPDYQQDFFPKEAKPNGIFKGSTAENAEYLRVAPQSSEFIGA
T3 sequence (P00533 25-1210): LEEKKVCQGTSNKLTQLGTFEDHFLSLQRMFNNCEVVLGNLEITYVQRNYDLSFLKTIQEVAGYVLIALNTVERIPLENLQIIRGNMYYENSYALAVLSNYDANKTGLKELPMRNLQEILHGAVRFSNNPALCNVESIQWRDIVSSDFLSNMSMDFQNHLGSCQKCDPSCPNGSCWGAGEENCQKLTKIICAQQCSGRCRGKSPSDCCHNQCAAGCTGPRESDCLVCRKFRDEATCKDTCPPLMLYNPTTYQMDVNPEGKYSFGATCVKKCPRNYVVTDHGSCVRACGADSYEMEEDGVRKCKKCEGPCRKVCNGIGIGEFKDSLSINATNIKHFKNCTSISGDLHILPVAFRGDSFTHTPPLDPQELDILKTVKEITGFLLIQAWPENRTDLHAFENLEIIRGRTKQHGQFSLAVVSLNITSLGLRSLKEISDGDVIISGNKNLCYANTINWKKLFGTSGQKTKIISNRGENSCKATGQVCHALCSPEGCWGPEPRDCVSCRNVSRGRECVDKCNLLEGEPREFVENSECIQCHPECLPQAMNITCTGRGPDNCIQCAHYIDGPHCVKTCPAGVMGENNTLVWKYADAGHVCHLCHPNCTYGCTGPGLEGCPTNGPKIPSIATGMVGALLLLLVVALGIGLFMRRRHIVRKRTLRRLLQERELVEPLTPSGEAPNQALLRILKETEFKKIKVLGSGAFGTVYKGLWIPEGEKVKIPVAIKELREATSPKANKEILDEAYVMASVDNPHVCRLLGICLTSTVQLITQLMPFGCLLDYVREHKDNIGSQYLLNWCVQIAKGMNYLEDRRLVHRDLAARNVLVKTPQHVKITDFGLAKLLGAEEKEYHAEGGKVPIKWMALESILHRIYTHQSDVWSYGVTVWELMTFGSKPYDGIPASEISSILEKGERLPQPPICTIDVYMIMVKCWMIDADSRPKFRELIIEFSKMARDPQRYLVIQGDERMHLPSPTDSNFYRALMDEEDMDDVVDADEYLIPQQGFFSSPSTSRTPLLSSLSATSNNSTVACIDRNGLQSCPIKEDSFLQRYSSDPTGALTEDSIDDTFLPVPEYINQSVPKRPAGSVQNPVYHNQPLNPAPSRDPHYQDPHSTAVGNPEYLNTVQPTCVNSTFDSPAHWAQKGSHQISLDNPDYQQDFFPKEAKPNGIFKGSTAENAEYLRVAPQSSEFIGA
CtermHisTag-mEGFR Wild type, sequence (P00533 25-1210): as above
T2 sequence (P00533 25-1210 T790M/C797S/L858R): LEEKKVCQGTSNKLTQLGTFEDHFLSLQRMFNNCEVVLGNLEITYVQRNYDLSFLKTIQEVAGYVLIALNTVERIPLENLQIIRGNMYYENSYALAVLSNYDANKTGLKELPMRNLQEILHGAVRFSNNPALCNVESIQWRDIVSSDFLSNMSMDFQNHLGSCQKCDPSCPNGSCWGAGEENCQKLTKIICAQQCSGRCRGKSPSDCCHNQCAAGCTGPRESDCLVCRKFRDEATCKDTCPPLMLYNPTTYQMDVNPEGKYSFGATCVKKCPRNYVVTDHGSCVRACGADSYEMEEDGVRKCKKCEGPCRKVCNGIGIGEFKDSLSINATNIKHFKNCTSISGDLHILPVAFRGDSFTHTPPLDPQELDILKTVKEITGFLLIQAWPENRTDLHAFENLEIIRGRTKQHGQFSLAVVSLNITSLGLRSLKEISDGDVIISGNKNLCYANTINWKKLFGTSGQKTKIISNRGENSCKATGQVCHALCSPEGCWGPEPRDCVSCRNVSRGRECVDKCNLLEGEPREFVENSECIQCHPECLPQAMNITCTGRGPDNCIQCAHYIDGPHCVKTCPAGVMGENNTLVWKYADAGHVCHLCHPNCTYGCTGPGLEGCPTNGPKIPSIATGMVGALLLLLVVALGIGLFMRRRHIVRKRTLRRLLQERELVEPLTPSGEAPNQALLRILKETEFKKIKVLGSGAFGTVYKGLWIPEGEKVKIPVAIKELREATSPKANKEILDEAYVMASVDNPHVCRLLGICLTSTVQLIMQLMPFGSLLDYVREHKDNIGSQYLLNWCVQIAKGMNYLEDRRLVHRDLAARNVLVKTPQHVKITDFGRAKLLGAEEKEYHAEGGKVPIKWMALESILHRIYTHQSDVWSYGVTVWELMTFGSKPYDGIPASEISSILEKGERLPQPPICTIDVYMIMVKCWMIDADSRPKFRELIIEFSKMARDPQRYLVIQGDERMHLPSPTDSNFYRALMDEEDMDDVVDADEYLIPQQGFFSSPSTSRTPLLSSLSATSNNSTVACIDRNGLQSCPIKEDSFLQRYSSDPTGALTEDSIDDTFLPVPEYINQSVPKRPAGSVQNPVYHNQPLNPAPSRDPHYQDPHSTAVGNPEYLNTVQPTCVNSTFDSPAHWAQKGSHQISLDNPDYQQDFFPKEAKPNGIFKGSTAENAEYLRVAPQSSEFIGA

Take `C#Cc1cc(NC(=O)NC2CCCC2)nc2nc(Nc3ccccc3N3CCCC(CS(C)(=O)=O)C3)ncc12` (stereo not shown) [Example 118, 3-Cyclopentyl-1-[5-ethynyl-2-({2-[3-(methanesulfonylmethyl)piperidin-1-yl]phenyl}amino)pyrido[2,3-d]pyrimidin-7-yl]urea]: the IC50 was 1000 to 50000 nM in test [1]; more than 10000 nM in test [2]; more than 3000 nM in test [3]; more than 3000 nM in test [4]; more than 3000 nM in test [5].
Regarding `C#Cc1cc(N2C(=O)OCC2CC2CCCC2)nc2nc(Nc3ccc(N4CCN(C)CC4)cc3)ncc12` (stereo not shown) [Example 112, 4-(Cyclopentylmethyl)-3-(5-ethynyl-2-{[4-(4-methylpiperazin-1-yl)phenyl]amino}pyrido[2,3-d]pyrimidin-7-yl)-1,3-oxazolidin-2-one], the IC50 is less than 20 nM in test [1]; less than 1000 nM in test [2]; 500 to 1000 nM in test [3]; 500 to 1000 nM in test [4]; more than 3000 nM in test [5].
